Reference: EP1568373A2, “Inducing cellular immune responses to HER2/neu using peptide and nucleic acid compositions” (priority 1999, dated 2001)
One block for each compound: values may come before it. Where no end group is shown, it is not given here.

Legend:
[1] = molecular target: DRB1*0101 (DR1) (Homo sapiens, UniProt P01903+P01911, A100R/D57E/F55L/F60I/F76Y/I96L/L162R/M171V/P40L/Q125E/R42F/V115G/Y59C); test: HLA class II binding assay, purified HLA molecules; settings: Her2/neu DR supertype primary binding, Table XXVIII
[2] = molecular target: DRB1*0701 (DR7) (Homo sapiens, UniProt P01903+P01911, A100R/A102G/A103Q/D57E/D86V/E43K/F76Y/K127E/L162R/M171V/P40G/Q125H/Q99D/R33Q/R42Y/R54Q/S133A/S66F/T210M/V115G/Y107V/Y59L/Y89S); test: HLA class II binding assay, purified HLA molecules; settings: Her2/neu DR supertype primary binding, Table XXVIII
[3] = molecular target: A*0101 (Homo sapiens, UniProt P04439, A114D/A174V/A182V/D101N/D185E/E176A/E190D/L180R/Q94H/R68K/S129P/T187R/V100A/V91M/W191G); test: HLA class I binding assay, purified HLA molecules, inhibition of 125I-radiolabeled probe peptide; settings: HLA-A1 Motif-Bearing Peptides, Table XXV
[4] = molecular target: A*2402 (Homo sapiens, UniProt P04439, D101N/D140Y/D185E/E176V/E190D/F33S/G103R/G107R/I119L/I121M/I306V/K335N/L105A/L180Q/L300P/N151K/N90K/Q86E/Q94H/R106L/R138H/R89G/T104I/T345S/V100E/W191G/Y123F); test: HLA class I binding assay, purified HLA molecules; settings: HLA-A24 Motif-Bearing Peptides, Table XXVI
[5] = molecular target: DRB1*0401 (DR4w4) (Homo sapiens, UniProt P01903+P01911, A100K/A169T/F76Y/I96L/K127E/L162R/M171V/N62H/P40V/Q125Y/R42H/S133A/S149N/S66Y/V115G/V209L/W38E); test: HLA class II binding assay, purified HLA molecules; settings: Her2/neu DR supertype primary binding, Table XXVIII

- IC50 [1]: 94 nM
- IC50 [2]: 1560 nM
Compound: CC(C)C[C@H](NC(=O)[C@H](C)NC(=O)[C@H](Cc1ccc(O)cc1)NC(=O)[C@H](CC(N)=O)NC(=O)[C@H](CC(=O)O)NC(=O)[C@H](CCC(=O)O)NC(=O)[C@H](Cc1ccccc1)NC(=O)[C@H](CC(C)C)NC(=O)[C@H](CCC(N)=O)NC(=O)[C@@H](N)[C@@H](C)O)C(=O)N[C@@H](C)C(=O)N[C@H](C(=O)N[C@@H](CC(C)C)C(=O)N[C@@H](CC(=O)O)C(=O)N[C@@H](CC(N)=O)C(=O)O)C(C)C [Her2/neu.105]

- IC50 [3]: 250 nM
Compound: CC(C)[C@H](N)C(=O)N[C@H](C(=O)N[C@@H](C)C(=O)N[C@@H](CS)C(=O)N1CCC[C@H]1C(=O)N[C@@H](Cc1ccc(O)cc1)C(=O)N[C@@H](CC(N)=O)C(=O)N[C@@H](Cc1ccc(O)cc1)C(=O)O)[C@@H](C)O [Her2/neu.296]

- IC50 [1]: 21 nM
Compound: CC[C@H](C)[C@H](NC(=O)[C@H](CCCCN)NC(=O)[C@H](CCCCN)NC(=O)[C@@H](N)CS)C(=O)N[C@@H](Cc1ccccc1)C(=O)NCC(=O)N[C@@H](CO)C(=O)N[C@@H](CC(C)C)C(=O)N[C@@H](C)C(=O)N[C@@H](Cc1ccccc1)C(=O)N[C@@H](CC(C)C)C(=O)N1CCC[C@H]1C(=O)N[C@@H](CCC(=O)O)C(=O)N[C@@H](CO)C(=O)N[C@@H](Cc1ccccc1)C(=O)O [Her2/neu.367]

- IC50 [4]: 38 nM
Compound: CC[C@H](C)[C@H](NC(=O)[C@@H]1CCCN1C(=O)[C@H](CCSC)NC(=O)[C@H](Cc1ccc(O)cc1)NC(=O)[C@@H](N)CO)C(=O)N[C@@H](Cc1c[nH]c2ccccc12)C(=O)N[C@@H](CCCCN)C(=O)N[C@@H](Cc1ccccc1)C(=O)O [Her2/neu.609]

- IC50 [1]: 56 nM
Compound: CC[C@H](C)[C@H](NC(=O)CNC(=O)[C@@H](NC(=O)[C@@H](NC(=O)[C@H](C)NC(=O)[C@H](CO)NC(=O)[C@@H](NC(=O)[C@@H](NC(=O)[C@H](CO)NC(=O)[C@@H](NC(=O)[C@H](CC(C)C)NC(=O)[C@@H]1CCCN1C(=O)[C@H](CO)NC(=O)[C@H](C)N)[C@@H](C)O)[C@@H](C)CC)[C@@H](C)CC)C(C)C)C(C)C)C(=O)N[C@@H](CC(C)C)C(=O)O [Her2/neu.648]

- IC50 [1]: 26 nM
Compound: CC[C@H](C)[C@H](NC(=O)CNC(=O)[C@@H](NC(=O)[C@@H](NC(=O)[C@H](C)NC(=O)[C@H](CO)NC(=O)[C@@H](NC(=O)[C@@H](NC(=O)[C@H](CO)NC(=O)[C@@H](NC(=O)[C@@H](N)CC(C)C)[C@@H](C)O)[C@@H](C)CC)[C@@H](C)CC)C(C)C)C(C)C)C(=O)N[C@@H](CC(C)C)C(=O)N[C@@H](CC(C)C)C(=O)N[C@H](C(=O)N[C@H](C(=O)O)C(C)C)C(C)C [Her2/neu.651]

- IC50 [1]: 79 nM
Compound: CC[C@H](C)[C@H](NC(=O)[C@H](C)NC(=O)[C@@H](NC(=O)[C@@H]1CCCN1C(=O)[C@@H](NC(=O)[C@H](CCCCN)NC(=O)[C@@H](NC(=O)[C@H](CC(N)=O)NC(=O)[C@H](CCC(=O)O)NC(=O)CN)C(C)C)[C@@H](C)CC)C(C)C)C(=O)N[C@@H](CCCCN)C(=O)N[C@H](C(=O)N[C@@H](CC(C)C)C(=O)N[C@@H](CCCNC(=N)N)C(=O)N[C@@H](CCC(=O)O)C(=O)O)C(C)C [Her2/neu.743]

- IC50 [5]: 6160 nM
Compound: CC[C@H](C)[C@H](NC(=O)[C@H](CCC(=O)O)NC(=O)[C@@H](N)CCCCN)C(=O)N[C@@H](CC(C)C)C(=O)N[C@@H](CC(=O)O)C(=O)N[C@@H](CCC(=O)O)C(=O)N[C@@H](C)C(=O)N[C@@H](Cc1ccc(O)cc1)C(=O)N[C@H](C(=O)N[C@@H](CCSC)C(=O)N[C@@H](C)C(=O)NCC(=O)N[C@H](C(=O)NCC(=O)N[C@@H](CO)C(=O)O)C(C)C)C(C)C [Her2/neu.765]

- IC50 [1]: 22 nM
- IC50 [2]: 2500 nM
Compound: CSCC[C@H](NC(=O)[C@H](CC(C)C)NC(=O)[C@H](CCC(N)=O)NC(=O)[C@@H](NC(=O)[C@@H](NC(=O)[C@H](CC(C)C)NC(=O)[C@H](CCC(N)=O)NC(=O)[C@@H](NC(=O)[C@@H](N)[C@@H](C)O)C(C)C)C(C)C)[C@@H](C)O)C(=O)N1CCC[C@H]1C(=O)N[C@@H](Cc1ccc(O)cc1)C(=O)NCC(=O)N[C@@H](CS)C(=O)N[C@@H](CC(C)C)C(=O)N[C@@H](CC(C)C)C(=O)O [Her2/neu.793]

- IC50 [1]: 6 nM
- IC50 [2]: 208 nM
Compound: CC[C@H](C)[C@H](NC(=O)[C@H](CCC(N)=O)NC(=O)[C@H](CCSC)NC(=O)[C@H](CS)NC(=O)[C@H](Cc1c[nH]c2ccccc12)NC(=O)[C@H](CC(N)=O)NC(=O)[C@H](CC(C)C)NC(=O)[C@@H](N)CC(C)C)C(=O)N[C@@H](C)C(=O)N[C@@H](CCCCN)C(=O)NCC(=O)N[C@@H](CCSC)C(=O)N[C@@H](CO)C(=O)N[C@@H](Cc1ccc(O)cc1)C(=O)N[C@@H](CC(C)C)C(=O)O [Her2/neu.822]

- IC50 [2]: 1470 nM
Compound: CSCC[C@H](NC(=O)[C@H](CC(C)C)NC(=O)[C@H](CCC(=O)O)NC(=O)[C@H](Cc1c[nH]c2ccccc12)NC(=O)[C@@H](NC(=O)[C@@H](NC(=O)[C@@H](NC(=O)CN)C(C)C)[C@@H](C)O)C(C)C)C(=O)N[C@H](C(=O)N[C@@H](Cc1ccccc1)C(=O)NCC(=O)N[C@@H](C)C(=O)N[C@@H](CCCCN)C(=O)N1CCC[C@H]1C(=O)N[C@@H](Cc1ccc(O)cc1)C(=O)O)[C@@H](C)O [Her2/neu.909]

- IC50 [1]: 58 nM
Compound: CC[C@H](C)[C@H](NC(=O)CNC(=O)[C@H](CC(=O)O)NC(=O)[C@H](Cc1ccc(O)cc1)NC(=O)[C@@H]1CCCN1C(=O)[C@H](CCCCN)NC(=O)[C@H](C)NC(=O)CNC(=O)[C@H](Cc1ccccc1)NC(=O)[C@@H](NC(=O)[C@H](CCSC)NC(=O)[C@H](CC(C)C)NC(=O)[C@H](CCC(=O)O)NC(=O)[C@H](Cc1c[nH]c2ccccc12)NC(=O)[C@@H](N)C(C)C)[C@@H](C)O)C(=O)O [Her2/neu.912]

- IC50 [5]: 790 nM
Compound: CC[C@H](C)[C@H](NC(=O)[C@H](CCSC)NC(=O)[C@H](Cc1c[nH]c2ccccc12)NC(=O)[C@H](CS)NC(=O)[C@H](CCCCN)NC(=O)[C@@H](NC(=O)[C@H](CCSC)NC(=O)[C@@H](NC(=O)[C@H](CCSC)NC(=O)[C@H](Cc1ccc(O)cc1)NC(=O)[C@@H](NC(=O)[C@@H](N)CC(=O)O)C(C)C)[C@@H](C)CC)C(C)C)C(=O)N[C@@H](CC(=O)O)C(=O)N[C@@H](CO)C(=O)N[C@@H](CCC(=O)O)C(=O)O [Her2/neu.950]

- IC50 [4]: 24 nM
Compound: AYPDSLPDF [Herw/neu414.Y2F9]

- IC50 [4]: 52 nM
Compound: AYSLTLQGF [Her2/neu.440.F9]

- IC50 [4]: 92 nM
Compound: AYSLTLQGL [Her2/neu.440]

- IC50 [4]: 164 nM
Compound: CYGLGMEHF [Her2/neu.342.F9]

- IC50 [1]: 5000 nM
Compound: DMKLRLPASPETHLD [Her2/neu.30]

- IC50 [1]: 833 nM
Compound: ETELVEPLTPSGAMP [Her2/neu.693]

- IC50 [3]: 89 nM
Compound: ETHLDMLRHLY [Her2/neu.40]

- IC50 [3]: 3.9 nM
Compound: ETMPNPEGRY [Her2/neu.280.T2]

- IC50 [3]: 0.9 nM
Compound: GTDLFEDNY [Her2/neu.104.D3]

- IC50 [3]: 50 nM
Compound: GTDMKLRLPY [Her2/neu.28.Y10]

- IC50 [3]: 1.9 nM
Compound: HTDMLRHLY [Her2/neu.42.T2]

- IC50 [1]: 1040 nM
Compound: ITDFGLARLLDIDET [Her2/neu.861]

- IC50 [1]: > 6250 nM
Compound: LLVVVLGVVFGILIK [Her2/neu.662]

- IC50 [4]: 10 nM
Compound: LYISAWPDSF [Her2/neu,410.F10]

- IC50 [4]: 143 nM
Compound: LYISAWPDSL [Her2/neu.410]

- IC50 [1]: 7140 nM
Compound: QPDVRPQPPSPREGP [Her2/neu.1142]

- IC50 [4]: 44 nM
Compound: TYLPTNASF [Her2/neu.63.F9]

- IC50 [1]: > 6250 nM
Compound: VEPLTPSGAMPNQAQ [Her2/neu.697]

- IC50 [3]: 5560 nM
Compound: VFETLEEITGY [Her2/neu.399]
